Laboratory results taken from US8940310B2, “Methods of treatment using TLR7 and/or TLR9 inhibitors” (Dynavax Technologies Corporation, priority 2010, dated 2015).
Marks after values point to notes of the source that are not given here. [I] = hypoxanthine (inosine)

Key:
[1] = Monomer and tetramer formation of IRPs, size-exclusion HPLC; format: physicochemical; settings: 100 mg/mL in PBS and 0.5M KCl, room temperature, five weeks
Procedure: Solutions were prepared of the by mixing 100 mg/mL of the IRP sequences in PBS and 0.5M KCl and storing at room temperature for three to five weeks. The solutions were subsequently analyzed by size-exclusion HPLC.

[2] = High dosages of IRPs in rats (weight, deaths, histology); format: in vivo, Sprague Dawley rats; settings: rat; for Heart: Cell Vacuolation, number of animals / Heart: Hemorrhage, number of animals / Heart: Mononuclear Cell Infiltration, number of animals / Heart: Necrosis, number of animals / Heart: No significant changes, number of animals / Liver: Liver changes, number of animals / Liver: Mixed cell infiltration, number of animals / Liver: Necrosis, number of animals / Liver: No significant changes, number of animals / Liver: Vacuolation, number of animals / Right Kidney: Hydronephrosis, number of animals / Right Kidney: Mineralization, number of animals / Right Kidney: Necrosis, number of animals / Right Kidney: No significant changes, number of animals / Right Kidney: Tubular basophilia, number of animals / Right Kidney: Tubular changes, number of animals: 6 animals
Procedure: To test the activity of IRPs at high dosages in rats, IRPs (SEQ ID NO:42 and SEQ ID NO:109) or a control (PBS) were subcutaneously administered to 8-9 weeks old, […], 3, 6, and 9 (n=6 per group). Rats were weighed prior to administration and on days 1, 3, 4, 6, 7, and 9. Organs were harvested at the end of the study, and organ weights and tissues levels of the oligonucleotides were determined. In addition, histolocial evaluation of the liver, kidney, and heart was performed.
Rats were weighed prior to administration and on days 1, 3, 6, 7, and 9. Organs were harvested at the end of the study, and organ weights and tissues levels of the oligonucleotides were determined. In addition, histological evaluation of the liver, kidney, and heart was performed.

[3] = High dosages of IRPs in mice (weight, histology); format: in vivo, BALB/c mice; settings: for Liver: Liver changes, number of animals / Liver: Mixed cell infiltration, number of animals / Liver: No significan changes, number of animals / Right Kidney: No significant changes, number of animals / Right Kidney: Tubular basophilia, number of animals / Right Kidney: Tubular changes, number of animals: 6 animals; for Heart: No significant changes, number of animals: tissue missing in two animals
Procedure: To test the activity of IRPs at high dosages in mice, IRPs or a control (saline) were subcutaneously administered to BALB/c mice at a dosage of 4 mg/kg, 20 mg/kg, 50 mg/kg, or 100 mg/kg on days 1, 4, 7, and 10 (n=5 per group). Mice were weighed prior to administration and on days 2, 4, 7, 9, and 11. Serum cytokines were assayed at two hours post the first and third injections and 24 hours post the fourth injection. Organs were harvested at the end of the study, and organ weights and tissues levels of the oligonucleotides were determined. In addition, histological evaluation of the liver, kidney, and heart was performed.
Mice were weighed prior to administration and on days 1, 3, 4, 6, 7, and 9. Organs were harvested at the end of the study, and organ weights and tissues levels of the oligonucleotides were determined. In addition, histological evaluation of the liver, kidney, and heart was performed.

human B-cells = assay: Human B-cells cultured in the presence of IRPs, IL-6
[4] = 10 mg/kg, 0 = no change to 4 = severe
[5] = 90 mg/kg, 0 = no change to 4 = severe
[6] = 50 mg/kg, 0 = no change to 4 = severe
[7] = 100 mg/kg, 0 = no change to 4 = severe

5′-TGC TGC TCC TGG AGI GGT GTT GT-3′ (DNA TGCTGCTCCTGGAGNGGTGTTGT; DNA, [I] at 15, backbone and methylation of C not given here) [SEQ ID NO:79]
fraction in monomer form [1]: 100% | Heart: Cell Vacuolation, number of animals ([2]; 10 mg/kg): 0 | Heart: Hemorrhage, number of animals ([2]; 10 mg/kg): 0 | Heart: Mononuclear Cell Infiltration, number of animals ([2]; 10 mg/kg): 0 | Heart: Necrosis, number of animals ([2]; 10 mg/kg): 0 | Heart: No significant changes, number of animals ([2]; 10 mg/kg): 6 | Liver: Liver changes, number of animals ([2]; 10 mg/kg): 0 | Liver: Mixed cell infiltration, number of animals ([2]; 10 mg/kg): 6 | Liver: Necrosis, number of animals ([2]; 10 mg/kg): 0 | Liver: No significant changes, number of animals ([2]; 10 mg/kg): 0 | Liver: Vacuolation, number of animals ([2]; 10 mg/kg): 0 | Right Kidney: Hydronephrosis, number of animals ([2]; 10 mg/kg): 0 | Right Kidney: Mineralization, number of animals ([2]; 10 mg/kg): 2 | Right Kidney: Necrosis, number of animals ([2]; 10 mg/kg): 0 | Right Kidney: No significant changes, number of animals ([2]; 10 mg/kg): 1 | Right Kidney: Tubular basophilia, number of animals ([2]; 10 mg/kg): 0 | Right Kidney: Tubular changes, number of animals ([2]; 10 mg/kg): 5 | Liver: Mixed cell infiltration, mean severity score [2, 4]: 1.8 | Right Kidney: Mineralization, mean severity score [2, 4]: 1.0 | Right Kidney: Tubular changes, mean severity score [2, 4]: 1.1 | Heart: cellular vacuolation ([2]; 90 mg/kg): present in some animals | Heart: hemorrhage and necrosis ([2]; 90 mg/kg): noted | Kidney: tubular basophilia ([2]; 90 mg/kg): occurred | Liver: hepatocellular cytoplasmic vacuolation ([2]; 90 mg/kg): hepatocellular cytoplasmic vacuolation | Liver: hepatocellular necrosis ([2]; 90 mg/kg): hepatocellular necrosis | Renal necrosis ([2]; 90 mg/kg): noted | deaths two days after the first dose ([2]; 90 mg/kg SC, n=6): two rats died | deaths two days after the second dose ([2]; 90 mg/kg SC, n=6): one rat died | Heart: Cell Vacuolation, number of animals ([2]; 90 mg/kg): 2 | Heart: Hemorrhage, number of animals ([2]; 90 mg/kg): 2 | Heart: Mononuclear Cell Infiltration, number of animals ([2]; 90 mg/kg): 0 | Heart: Necrosis, number of animals ([2]; 90 mg/kg): 3 | Heart: No significant changes, number of animals ([2]; 90 mg/kg): 1 | Liver: Liver changes, number of animals ([2]; 90 mg/kg): 3 | Liver: Mixed cell infiltration, number of animals ([2]; 90 mg/kg): 3 | Liver: Necrosis, number of animals ([2]; 90 mg/kg): 2 | Liver: No significant changes, number of animals ([2]; 90 mg/kg): 0 | Liver: Vacuolation, number of animals ([2]; 90 mg/kg): 3 | Right Kidney: Hydronephrosis, number of animals ([2]; 90 mg/kg): 0 | Right Kidney: Mineralization, number of animals ([2]; 90 mg/kg): 1 | Right Kidney: Necrosis, number of animals ([2]; 90 mg/kg): 3 | Right Kidney: No significant changes, number of animals ([2]; 90 mg/kg): 0 | Right Kidney: Tubular basophilia, number of animals ([2]; 90 mg/kg): 2 | Right Kidney: Tubular changes, number of animals ([2]; 90 mg/kg): 3 | Heart: Cell Vacuolation, mean severity score [2, 5]: 1.5 | Heart: Hemorrhage, mean severity score [2, 5]: 3.5 | Heart: Necrosis, mean severity score [2, 5]: 2.0 | Liver: Liver changes, mean severity score [2, 5]: 1.8 | Liver: Mixed cell infiltration, mean severity score [2, 5]: 2.5 | Liver: Necrosis, mean severity score [2, 5]: 2.8 | Liver: Vacuolation, mean severity score [2, 5]: 2.3 | Right Kidney: Mineralization, mean severity score [2, 5]: 2.0 | Right Kidney: Necrosis, mean severity score [2, 5]: 4.0 | Right Kidney: Tubular basophilia, mean severity score [2, 5]: 2.8 | Right Kidney: Tubular changes, mean severity score [2, 5]: 2.0 | Heart: Chronic inflammation, number of animals ([3]; 50 mg/kg): 2 | Heart: Mineralization, number of animals ([3]; 50 mg/kg): 1 | Heart: Chronic inflammation, mean severity score [3, 6]: 2.0 | Heart: Mineralization, mean severity score [3, 6]: 2.0 | Liver: Liver changes, mean severity score [3, 6]: 1.0 | Liver: Mixed cell infiltration, mean severity score [3, 6]: 1.0 | Liver: Liver changes, number of animals ([3]; 50 mg/kg): 6 | Liver: Mixed cell infiltration, number of animals ([3]; 50 mg/kg): 4 | Liver: No significan changes, number of animals ([3]; 50 mg/kg): 0 | Right Kidney: No significant changes, number of animals ([3]; 50 mg/kg): 6 | Right Kidney: Tubular basophilia, number of animals ([3]; 50 mg/kg): 0 | Right Kidney: Tubular changes, number of animals ([3]; 50 mg/kg): 0 | Heart: No significant changes, number of animals ([3]; 50 mg/kg): 1** | Heart: Chronic inflammation, number of animals ([3]; 100 mg/kg): 1 | Heart: Mineralization, number of animals ([3]; 100 mg/kg): 2 | Heart: Chronic inflammation, mean severity score [3, 7]: 3.0 | Heart: Mineralization, mean severity score [3, 7]: 2.5 | Liver: Liver changes, mean severity score [3, 7]: 2.0 | Liver: Mixed cell infiltration, mean severity score [3, 7]: 2.0 | Right Kidney: Tubular changes, mean severity score [3, 7]: 2.0 | Liver: Liver changes, number of animals ([3]; 100 mg/kg): 6 | Liver: Mixed cell infiltration, number of animals ([3]; 100 mg/kg): 6 | Liver: No significan changes, number of animals ([3]; 100 mg/kg): 0 | Right Kidney: No significant changes, number of animals ([3]; 100 mg/kg): 0 | Right Kidney: Tubular basophilia, number of animals ([3]; 100 mg/kg): 0 | Right Kidney: Tubular changes, number of animals ([3]; 100 mg/kg): 6 | Heart: No significant changes, number of animals ([3]; 100 mg/kg): 1** | Normalized IL-6 Response (Percentage of Positive Control) (human B-cells; Experiment # 1, Max Conc 4.0 uM): 33% | Normalized IL-6 Response (Percentage of Positive Control) (human B-cells; Experiment # 3, Max Conc 4.0 uM): 18% | Normalized IL-6 Response (Percentage of Positive Control) (human B-cells; Experiment # 11, Max Conc 2.0 uM): 28% | B-cell stimulatory activity (human B-cells; FIG. 1C, percent IL-6 from CpG-ISS): low B-cell stimulatory activity
